Series [1] has as its system stress-induced hyperthermia in mice. The series can be described thus: stress-induced hyperthermia in mice. The format is in vivo. Particulars: reduced from 0.92±0.09° C., p<0.001. As for the experimental part:
A. Lecci at al., Psychopharmacol. 101, 255-261]. At doses of about 0.1 to about 30 mg/kg p.o., the agents of the invention reverse the stress-induced hyperthermia.

In turn, `CCOC(=O)N1CC[C@@H]2[C@H]1CCC[C@@]2(O)C#Cc1ccc(F)cc1` (racemic) [Example 1i, (±)-(3aRS,4SR,7aRS)-4-(4-Fluoro-phenylethynyl)-4-hydroxy-octahydro-indole-1-carboxylic acid ethyl ester] showed a melting point of 115 to 116 °C.

As to `CC(=O)N[C@@H]1CCC[C@@](O)(C#Cc2cccc(C)c2)C1` (racemic) [Example 6m, (±)-(1RS,3SR)-N-(3-hydroxy-3-m-tolylethynyl-cyclohexyl)-acetamide], the melting point was in the range of 152 to 155 °C.

For `CCOC(=O)N[C@@H]1CCC[C@@](O)(C#Cc2cccc(C)c2)C1` (racemic) [Example 6o, (±)-(1RS,3SR)-(3-Hydroxy-3-m-tolylethynyl-cyclohexyl)-carbamic acid ethyl ester], the melting point was in the range of 106 to 107 °C.

As to `CCOC(=O)N[C@@H]1CCC[C@@](O)(C#Cc2cccc(F)c2)C1` (racemic) [Example 6u, (±)-(1RS,3SR)-[3-(3-Fluoro-phenylethynyl)-3-hydroxy-cyclohexyl]-carbamic acid ethyl ester], the melting point was 121 to 123 °C.

As to `COC(=O)N1CC[C@@H]2[C@H]1CCC[C@@]2(O)C#Cc1cccc(C)c1` [Example 1, (−)-(3aR,4S,7aR)-4-Hydroxy-4-m-tolylethynyl-octahydro-indole-1-carboxylic acid methyl ester], the stress-induced hyperthermia in series [1] (0.1 mg/kg p.o.) is 0.56±0.06 °C; in series [1] (1 mg/kg p.o.), 0.42±0.06 °C; in series [1] (10 mg/kg p.o.), 0.18±0.05 °C.

`CCOC(=O)N1CC[C@@H]2[C@H]1CCC[C@@]2(O)C#Cc1cccc(C)c1` [Example 1a, (−)-(3aR,4S,7aR)-4-Hydroxy-4-m-tolylethynyl-octahydro-indole-1-carboxylic acid ethyl ester] showed a melting point of 118 to 121 °C.

In turn, `Cc1cccc(C#C[C@]2(O)CCC[C@@H]3[C@H]2CCN3C(=O)c2ccco2)c1` [Example 1b, (−)-(3aR,4S,7aR)-Furan-2-yl-(4-hydroxy-4-m-tolylethynyl-octahydro-indol-1-yl)-methanone] displayed a melting point of 195.5 to 196.5 °C.

The term melting point denotes the temperature, or range, at which the solid turns liquid.

The record behind these values is patent US8536229B2, “Acetylene derivatives having MGluR 5 antagonistic activity” (Novartis AG, priority 2001, dated 2013).
